The source of these data is patent US9649306B2, “Treatment of diseases through administration of N-[5-(3,5-difluoro-benzyl)-1H-indazol-3-yl]-4-(4-methyl-piperazin-1-yl)-2-(tetrahydro-pyran-4-ylamino)-benzamide” (NERVIANO MEDICAL SCIENCES S.R.L., priority 2012, dated 2017).

This data set can be described thus: Hygroscopicity test by Dynamic Vapour Sorption (DVS 1000, SMS). Type of data set: physicochemical. Conditions: for hygroscopicity (in words): DVS, 0-90% RH at 25° C. An excerpt: The observed water uptake was investigated by submitting a sample of such substances to a hygroscopicity test by means of a DVS 1000 (SMS). The apparatus is a “controlled atmosphere microbalance” where the weighed sample is exposed to programmed variations of the relative humidity (RH) at a constant and controlled temperature. The measured parameters (weight, time and RH), reported in Excel worksheets, allow obtaining hygroscopicity curves over the tested RH range. For example, sorption/desorption cycles between 0% and 90% RH can be performed at controlled temperature of 25° C. Progressive variations of RH can be, for example, of 10% and 3% and are operated by the software at the equilibration of the sample weight. This condition can be defined at a constant rate of percent weight variation such as, for example, 0.005%/min. FIG. 6 reports the DVS profiles of the amorphous form, crystalline form 1 and crystalline form 2 of the compound of formula (I). Relative Humidity (RH, %) values are reported on the x-axis while Change in Mass (%) is reported on the y axis. The curves are related to the sorption step between 0% RH and 90% RH at 25° C.

Where [1] appears, read: DVS sorption step, 25° C./90% RH.

“Also recorded” adds a separate entry of the source.

Take `CN1CCN(c2ccc(C(=O)Nc3n[nH]c4ccc(Cc5cc(F)cc(F)c5)cc34)c(NC3CCOCC3)c2)CC1` [crystalline form 2, N-[5-(3,5-Difluoro-benzyl)-1H-indazol-3-yl]-4-(4-methyl-piperazin-1-yl)-2-(tetrahydro-pyran-4-ylamino)-benzamide]: the “hygroscopicity (in words)” value is on record as “low hygroscopicity”. Under setting [1], the water uptake came to 0.2%.

As for `CN1CCN(c2ccc(C(=O)Nc3n[nH]c4ccc(Cc5cc(F)cc(F)c5)cc34)c(NC3CCOCC3)c2)CC1` [amorphous form, N-[5-(3,5-Difluoro-benzyl)-1H-indazol-3-yl]-4-(4-methyl-piperazin-1-yl)-2-(tetrahydro-pyran-4-ylamino)-benzamide], the “hygroscopicity (in words)” value is “higher hygroscopicity than the crystalline forms 1 and 2; also recorded: hygroscopic solid”. Moreover, the water uptake entry (DVS at 25° C., from RH values lower than 30% RH) was “greater than 1%”. Also, the water uptake under setting [1] is 2.5%.

As to `CN1CCN(c2ccc(C(=O)Nc3n[nH]c4ccc(Cc5cc(F)cc(F)c5)cc34)c(NC3CCOCC3)c2)CC1` [crystalline form 1, N-[5-(3,5-Difluoro-benzyl)-1H-indazol-3-yl]-4-(4-methyl-piperazin-1-yl)-2-(tetrahydro-pyran-4-ylamino)-benzamide], the “hygroscopicity (in words)” value was “low hygroscopicity”. The compound also yielded a water uptake under setting [1] of 0.6%.
